From patent publication US6737383B1, “Herbicidal oxadiazolidines” (priority 1999, dated 2004)

Columns and labels:
purple nutsedge = assay: Test B pre/postemergence purple nutsedge; format: in vivo, Cyperus rotundus; details: for Plant response rating, Nutsedge: scale of 0 to 10 where 0 is no effect and 10 is complete control
In short: (§1)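 Herbicidal effect was estimated by eye on a ten-point control scale after plants spent twelve to sixteen days in a greenhouse following soil or foliar treatment. Foliar sprays targeted plants at one to four leaves; all doses were formulated in a non-phytotoxic solvent with surfactant.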

rice = assay: Test B flood test rice; format: in vivo, Oryza sativa
In short: (§2)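 Plants were grown to the 2-leaf stage before treatment with test chemical, then held in a greenhouse for twelve to sixteen days. Injury was visually rated against untreated controls on a 0–10 scale, where 0 is no effect and 10 is complete control.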

duck salad = assay: Test B flood test duck salad; format: in vivo, Heteranthera limosa
In short: as §2

bedstraw = assay: Test B pre/postemergence bedstraw; format: in vivo, Galium aparine; details: Postemergence
In short: as §1

blackgrass = assay: Test B pre/postemergence blackgrass; format: in vivo, Alopecurus myosuroides
In short: as §1

pigweed = assay: Test B pre/postemergence pigweed; format: in vivo, Amaranthus retroflexus; details: for Plant response rating, Redroot pigweed: scale of 0 to 10 where 0 is no effect and 10 is complete control
In short: as §1

surinam grass = assay: Test B pre/postemergence surinam grass; format: in vivo, Brachiaria decumbens
In short: as §1

morningglory = assay: Test B pre/postemergence morningglory; format: in vivo, Ipomoea hederacea; details: for Plant response rating, Morningglory: scale of 0 to 10 where 0 is no effect and 10 is complete control
In short: as §1

sugar beet = assay: Test B pre/postemergence sugar beet; format: in vivo, Beta vulgaris; details: for Plant response rating, Sugarbeets: scale of 0 to 10 where 0 is no effect and 10 is complete control
In short: as §1

bamyardgrass = assay: Test B flood test barnyardgrass; format: in vivo, Echinochloa crus-galli
In short: as §2

corn = assay: Test B pre/postemergence corn; format: in vivo, Zea mays
In short: as §1

velvetleaf = assay: Test B pre/postemergence velvetleaf; format: in vivo, Abutilon theophrasti; details: for Plant response rating, Velvetleaf: scale of 0 to 10 where 0 is no effect and 10 is complete control
In short: as §1

giant foxtail = assay: Test B pre/postemergence giant foxtail; format: in vivo, Setaria faberii
In short: as §1

cocklebur = assay: Test B pre/postemergence cocklebur; format: in vivo, Xanthium strumarium
In short: as §1

rape = assay: Test B pre/postemergence rape; format: in vivo, Brassica napus; details: for Plant response rating, Rape: scale of 0 to 10 where 0 is no effect and 10 is complete control
In short: as §1

[1] = Postemergence, Rate 250 g/ha, scale 0 to 10
[2] = Preemergence, Rate 250 g/ha, scale 0 to 10, 0 is no effect, 10 is complete control
[3] = Rate 62 g/ha, Postemergence, scale 0 to 10 (0 no effect, 10 complete control)
[4] = Rate 125 g/ha, Postemergence, scale 0 to 10, 0 is no effect, 10 is complete control
[5] = Rate 62 g/ha, flood test species, Pre-emergence, visual evaluation after twelve to sixteen days
[6] = Rate 125 g/ha, under heading Pre-emergence, flood test species, visual evaluation after twelve to sixteen days
[7] = Rate 250 g/ha, Pre-emergence (flood test species), scale 0 to 10, 0 is no effect, 10 is complete control
[8] = Rate 500 g/ha, Pre-emergence, flood test species, scale 0 to 10 (0 no effect, 10 complete control)
[9] = Postemergence, Rate 500 g/ha, scale of 0 to 10 where 0 is no effect and 10 is complete control
[10] = Preemergence, Rate 62 g/ha, scale of 0 to 10 where 0 is no effect and 10 is complete control
[11] = Preemergence, Rate 125 g/ha, scale of 0 to 10 where 0 is no effect and 10 is complete control
[12] = Preemergence, Rate 500 g/ha, scale 0 to 10, 0 is no effect, 10 is complete control

CC(C)N(C(=O)n1oc(=O)n(CCCl)c1=O)c1ccccc1 [Compound 469]
2: Redroot pigweed plant response rating (pigweed; [1]) | B. signalgrass plant response rating (surinam grass; Postemergence, Rate 250 g/ha, scale 0 to 10, 0 no effect, 10 complete control) | B. signalgrass plant response rating (surinam grass; [4]) | Sugarbeets plant response rating (sugar beet; [1]) | Corn plant response rating (corn; [1]) | Plant response rating, Corn (corn; [11]) | Plant response rating, Rape (rape; Preemergence, Rate 125 g/ha)
3: Plant response rating, B. signalgrass (surinam grass; [10]) | Cocklebur plant response rating (cocklebur; [9])
4: Corn plant response rating (corn; [9]) | Plant response rating, Velvetleaf (velvetleaf; Preemergence, Rate 62 g/ha)
9: Blackgrass plant response rating (blackgrass; [1]) | Blackgrass plant response rating (blackgrass; [9]) | Blackgrass plant response rating (blackgrass; [2]) | Morningglory plant response rating (morningglory; [3]) | Morningglory plant response rating (morningglory; [4]) | Corn plant response rating (corn; [12]) | Giant foxtail plant response rating (giant foxtail; [1]) | Giant foxtail plant response rating (giant foxtail; [9]) | Plant response rating, Giant foxtail (giant foxtail; [10]) | Giant foxtail plant response rating (giant foxtail; [4])
5: Plant response rating, Redroot pigweed (pigweed; Preemergence, Rate 62 g/ha) | Plant response rating, Velvetleaf (velvetleaf; Preemergence, Rate 125 g/ha)
6: Bedstraw plant response rating (bedstraw; Rate 250 g/ha, scale 0 to 10) | Bedstraw plant response rating (bedstraw; Rate 500 g/ha, scale of 0 to 10 where 0 is no effect and 10 is complete control) | Plant response rating, Blackgrass (blackgrass; [10]) | B. signalgrass plant response rating (surinam grass; [9]) | Plant response rating, Sugarbeets (sugar beet; Preemergence, Rate 62 g/ha) | Velvetleaf plant response rating (velvetleaf; [2])
0: Nutsedge plant response rating (purple nutsedge; [1]) | Plant response rating, Nutsedge (purple nutsedge; Preemergence, Rate 62 g/ha) | Plant response rating, Nutsedge (purple nutsedge; Preemergence, Rate 125 g/ha) | Nutsedge plant response rating (purple nutsedge; [2]) | Nutsedge plant response rating (purple nutsedge; [3]) | Nutsedge plant response rating (purple nutsedge; [4]) | Plant response rating, Rice (0 to 10 scale, 0 is no effect, 10 is complete control) (rice; [5]) | Rice plant response rating (0 to 10 scale, 0 is no effect, 10 is complete control) (rice; [6]) | Rice plant response rating (rice; [7]) | Rice plant response rating (rice; [8]) | Plant response rating, Ducksalad (0 to 10 scale, 0 is no effect, 10 is complete control) (duck salad; [5]) | Ducksalad plant response rating (0 to 10 scale, 0 is no effect, 10 is complete control) (duck salad; [6]) | Ducksalad plant response rating (duck salad; [7]) | Ducksalad plant response rating (duck salad; [8]) | Bedstraw plant response rating (bedstraw; Rate 62 g/ha, scale 0 to 10 (0 no effect, 10 complete control)) | Redroot pigweed plant response rating (pigweed; [3]) | Redroot pigweed plant response rating (pigweed; [4]) | B. signalgrass plant response rating (surinam grass; [3]) | Plant response rating, Morningglory (morningglory; Preemergence, Rate 62 g/ha) | Plant response rating, Morningglory (morningglory; Preemergence, Rate 125 g/ha) | Morningglory plant response rating (morningglory; [2]) | Sugarbeets plant response rating (sugar beet; [3]) | Sugarbeets plant response rating (sugar beet; [4]) | Plant response rating, Barnyardgrass (0 to 10 scale, 0 is no effect, 10 is complete control) (bamyardgrass; [5]) | Barnyardgrass plant response rating (0 to 10 scale, 0 is no effect, 10 is complete control) (bamyardgrass; [6]) | Barnyardgrass plant response rating (bamyardgrass; [7]) | Barnyardgrass plant response rating (bamyardgrass; [8]) | Plant response rating, Corn (corn; [10]) | Corn plant response rating (corn; [3]) | Corn plant response rating (corn; [4]) | Velvetleaf plant response rating (velvetleaf; [1]) | Velvetleaf plant response rating (velvetleaf; [3]) | Velvetleaf plant response rating (velvetleaf; [4]) | Cocklebur plant response rating (cocklebur; [1]) | Plant response rating, Cocklebur (cocklebur; [10]) | Plant response rating, Cocklebur (cocklebur; [11]) | Cocklebur plant response rating (cocklebur; [2]) | Cocklebur plant response rating (cocklebur; [12]) | Cocklebur plant response rating (cocklebur; [3]) | Cocklebur plant response rating (cocklebur; [4]) | Rape plant response rating (rape; [1]) | Plant response rating, Rape (rape; Preemergence, Rate 62 g/ha) | Rape plant response rating (rape; [3]) | Rape plant response rating (rape; [4])
7: Blackgrass plant response rating (blackgrass; [3]) | Blackgrass plant response rating (blackgrass; [4]) | Plant response rating, B. signalgrass (surinam grass; [11]) | B. signalgrass plant response rating (surinam grass; [2]) | Velvetleaf plant response rating (velvetleaf; [12])
1: Morningglory plant response rating (morningglory; [12])
8: Plant response rating, Blackgrass (blackgrass; [11]) | Plant response rating, Sugarbeets (sugar beet; Preemergence, Rate 125 g/ha) | Sugarbeets plant response rating (sugar beet; [2]) | Corn plant response rating (corn; [2]) | Giant foxtail plant response rating (giant foxtail; [3])
10: Blackgrass plant response rating (blackgrass; [12]) | Plant response rating, Redroot pigweed (pigweed; Preemergence, Rate 125 g/ha) | Redroot pigweed plant response rating (pigweed; [2]) | Redroot pigweed plant response rating (pigweed; [12]) | B. signalgrass plant response rating (surinam grass; [12]) | Morningglory plant response rating (morningglory; [1]) | Sugarbeets plant response rating (sugar beet; [12]) | Plant response rating, Giant foxtail (giant foxtail; [11]) | Giant foxtail plant response rating (giant foxtail; [2]) | Giant foxtail plant response rating (giant foxtail; [12]) | Rape plant response rating (rape; [2]) | Rape plant response rating (rape; [12])
